The results in this text go back to patent US11986532B2 (Arvinas Operations, Inc., priority 2021, dated 2024).

The experiment has as its target T1, BCL6 (Homo sapiens, UniProt P41182).
T1 construct: endogenous in cells; host or cells: T47D breast cancer epithelial cells
The experiment in a line: Immunofluorescence protocol for high content imaging of BCL6 (degradation) in T47D cells, 3 days compound treatment. The format is cell-based. The following applies: T47D cells, 3 days compound treatment; for DC50: read-out: Mean DC50 (nM)* category; for Dmax: read-out: Mean Dmax (%)** category. The procedure: Immunofluorescence Protocol for High Content Imaging of BCL6
T47D cells were seeded in 100 μl volume of RPMI1640-10% FBS in a 96-well black/clear bottom plates for adherent lines (Corning #3904).
Day 1. T47D breast cancer epithelial cells were seeded at a density so that confluence is ˜70-90% at endpoint. Cells were seeded at 7K/0.1 ml/well the morning prior to the addition of exemplary bifunctional degradation compounds.
Day 2. Prepare an 11 point 3-fold serial dilution of exemplary bifunctional compound in DMSO and aliquot an appropriate volume to cell growth media to generate a 2× final concentration of exemplary bifunctional compound. Add an equal volume (0.1 ml) of 2× exemplary bifunctional compound/media mix to previously plated cells, for a final top concentration in aqueous cell growth media of 0.1 or 1 μM. Incubate for 3 days at 37° C., 5% CO2.
Day 5 Immunofluorescence. Discard cell media. Wash wells with 200 μl of room temperature phosphate-buffered saline (PBS). Prepared 4% paraformaldehyde (PFA) from 16% PFA (Electron Microscopy Sciences #15710) using 1×PBS. Fifty μl of 4% PF was added to each well and incubate for 15 minutes at room temperature to fix the cells. The PFA was aspirated and the cells washed twice with PBS (200 μl)).
Prepared 0.1% Triton X-100 in PBS using 10% triton X-100 stock. The cells were permeabilized by adding 100 ul of the 0.1% Triton X-100 in PBS to each well to permeabilize cells and incubating at room temperature for 15 minutes. Cells were washed twice with PBS.
Prepared 3% BSA/PBS (from Thermofisher #37515 Blocker BSA in TBS, 10%), and 100 ul was added to each well. The cells were incubated for at least 1 hour at room temperature.
Prepared 1% BSA/PBS using Blocker BSA/PBS, and the 3% BSA/PBS removed from the wells.
For no primary antibody controls, 50 μl 1% BSA/PBS was added.
Primary antibody (BCL6 Rb Ab, CST-14895, Cell Signaling) was diluted 1:300 in 1% BSA/PBS using Blocker BSA/PBS.
Fifty μl of primary antibody added to all remaining wells (i.e., all wells other than the primary antibody controls) and the cells were incubated overnight at 4° C. with slow orbital movement.
Day 6. Contents of the wells was removed and the cells washed four times with 200 ul PBS. 1% BSA/PBS was prepared using Blocker BSA in PBS.
Diluted secondary antibody goat anti-Rb IgG Alexa-488 1:1000, and cell mask-Alexa-647 1:3000 in 1% BSA/PBS in the same mix. Add 50 μl to each well and incubate at room temperature for 1 hour in the dark.
Cells were washed three times with 200 ul PBS, and then incubated for 10 minutes with 100 ul Hoechst dye at 1 μg/mL (20 mM stock) to stain cell nuclei. Wells were then washed with 200 μl PBS, and 100 ul of PBS was added to each well and the plate covered plate with a plastic opaque cover. Plates were stored at 4° C. and covered in aluminum foil until imaged.
Plates were equilibrated to room temperature prior to reading. The bottom of the plate was wiped with 70% isopropanol immediately prior to imaging.
10×, 4 fields/well, include Top hat smoothing in the analysis protocol.
16% paraformaldehyde: Electron Microscopy Sciences #15710
Hoechst: Thermofisher #62249
Blocker BSA in PBS, 10%: Thermofisher #37515
Blocker BSA in TBS, 10%: Thermofisher #37520
Goat anti-rabbit or mouse AlexaFluor-488: Thermofisher #A11008
Cell mask deep red AlexaFluor-647: Thermofisher #C10046
Wash buffer, PBS: 20×PBS, Thermofisher

One may read the DC50 as the concentration giving 50% degradation. The Dmax is the largest share of the target that was removed. Consider `CNC(=O)COc1cc2cc(Nc3nc(N4CCC5(CC4)CC(C(=O)N4CCC(c6cccc7c6CN(C6CCC(=O)NC6=O)C7=O)CC4)C5)ncc3Cl)ccc2n(C(C)C)c1=O` (centres unmarked) [Compound 19, 2-[(6-{[5-chloro-2-(2-{4-[2-(2,6-dioxopiperidin-3-yl)-1-oxo-2,3-dihydro-1H-isoindol-4-yl]piperidine-1-carbonyl}-7-azaspiro [3.5]nonan-7-yl)pyrimidin-4-yl]amino}-2-oxo-1-(propan-2-yl)-1,2-dihydroquinolin-3-yl)oxy]-N-methylacetamide], for which the DC50 is below 10 nM and the Dmax is 50 to 70%.

In the case of `CNC(=O)COc1cc2cc(Nc3nc(N4CCN(CC5CCN(c6ccc7c(c6OC)CN(C6CCC(=O)NC6=O)C7=O)CC5)CC4)ncc3Cl)ccc2n(C(C)C)c1=O` (centres unmarked) [Compound 20, 2-{[6-({5-chloro-2-[4-({1-[2-(2,6-dioxopiperidin-3-yl)-4-methoxy-1-oxo-2,3-dihydro-1H-isoindol-5-yl]piperidin-4-yl}methyl)piperazin-1-yl]pyrimidin-4-yl}amino)-2-oxo-1-(propan-2-yl)-1,2-dihydroquinolin-3-yl]oxy}-N-methylacetamide], the 50% degradation concentration (DC50) is at least 100 nM and the Dmax was at least 70%.

For the compound `CNC(=O)COc1cc2cc(Nc3nc(N4CCN(CC5CCN(c6cc7c(cc6OC)C(=O)N(C6CCC(=O)NC6=O)C7)CC5)CC4)ncc3Cl)ccc2n(C(C)C)c1=O` (centres unmarked) [Compound 21, 2-{[6-({5-chloro-2-[4-({1-[2-(2,6-dioxopiperidin-3-yl)-6-methoxy-1-oxo-2,3-dihydro-1H-isoindol-5-yl]piperidin-4-yl}methyl)piperazin-1-yl]pyrimidin-4-yl}amino)-2-oxo-1-(propan-2-yl)-1,2-dihydroquinolin-3-yl]oxy}-N-methylacetamide], the DC50 is below 10 nM and the Dmax was below 50%.

On to `CNC(=O)COc1cc2cc(Nc3nc(N4CCC5(CC4)CN(C(=O)C4CCN(c6cccc7c6CN(C6CCC(=O)NC6=O)C7=O)CC4)C5)ncc3Cl)ccc2n(C(C)C)c1=O` (centres unmarked) [Compound 22, 2-[(6-{[5-chloro-2-(2-{1-[2-(2,6-dioxopiperidin-3-yl)-1-oxo-2,3-dihydro-1H-isoindol-4-yl]piperidine-4-carbonyl}-2,7-diazaspiro[3.5]nonan-7-yl)pyrimidin-4-yl]amino}-2-oxo-1-(propan-2-yl)-1,2-dihydroquinolin-3-yl)oxy]-N-methylacetamide], for which the DC50 was below 10 nM and the Dmax lay within 50 to 70%.

Regarding `CNC(=O)COc1cc2cc(Nc3nc(N4CCN(C[C@H]5C[C@@H](N6CCC(c7cccc8c7C(=O)N(C7CCC(=O)NC7=O)C8=O)CC6)C5)CC4)ncc3Cl)ccc2n(C(C)C)c1=O` (some centres unmarked) [Compound 23, 2-[(6-{[5-chloro-2-(4-{[(1s,3s)-3-{4-[2-(2,6-dioxopiperidin-3-yl)-1,3-dioxo-2,3-dihydro-1H-isoindol-4-yl]piperidin-1-yl}cyclobutyl]methyl}piperazin-1-yl)pyrimidin-4-yl]amino}-2-oxo-1-(propan-2-yl)-1,2-dihydroquinolin-3-yl)oxy]-N-methylacetamide], the DC50 was 50 to 100 nM and the Dmax was below 50%.

As to `CNC(=O)COc1cc2cc(Nc3nc(N4CCN(C[C@H]5C[C@H](N6CCC(c7cccc8c7C(=O)N(C7CCC(=O)NC7=O)C8=O)CC6)C5)CC4)ncc3Cl)ccc2n(C(C)C)c1=O` (some centres unmarked) [Compound 24, 2-[(6-{[5-chloro-2-(4-{[(1r,3r)-3-{4-[2-(2,6-dioxopiperidin-3-yl)-1,3-dioxo-2,3-dihydro-1H-isoindol-4-yl]piperidin-1-yl}cyclobutyl]methyl}piperazin-1-yl)pyrimidin-4-yl]amino}-2-oxo-1-(propan-2-yl)-1,2-dihydroquinolin-3-yl)oxy]-N-methylacetamide], the DC50 was in the range of 50 to 100 nM and the maximal degradation (Dmax) was below 50%.

For the compound `CNC(=O)COc1cc2cc(Nc3nc(N4CCN(CC5CCN(c6ccc7c(c6F)CN(C6CCC(=O)NC6=O)C7=O)CC5)CC4)ncc3Cl)ccc2n(C(C)C)c1=O` (centres unmarked) [Compound 25, 2-{[6-({5-chloro-2-[4-({1-[2-(2,6-dioxopiperidin-3-yl)-4-fluoro-1-oxo-2,3-dihydro-1H-isoindol-5-yl]piperidin-4-yl}methyl)piperazin-1-yl]pyrimidin-4-yl}amino)-2-oxo-1-(propan-2-yl)-1,2-dihydroquinolin-3-yl]oxy}-N-methylacetamide], the DC50 is below 10 nM and the Dmax was below 50%.

Take `CNC(=O)COc1cc2cc(Nc3nc(N4CCN(CC5CCN(c6cc7c(c(OC)c6)C(=O)N(C6CCC(=O)NC6=O)C7)CC5)CC4)ncc3Cl)ccc2n(C(C)C)c1=O` (centres unmarked) [Compound 26]: the 50% degradation concentration (DC50) was below 10 nM and the Dmax lay within 50 to 70%.

With `CNC(=O)COc1cc2cc(Nc3nc(N4CCC5(CC4)CC(C(=O)N4CCN(c6cccc7c6CN(C6CCC(=O)NC6=O)C7=O)CC4)C5)ncc3Cl)ccc2n(C(C)C)c1=O` (centres unmarked) [Compound 27, 2-[(6-{[5-chloro-2-(2-{4-[2-(2,6-dioxopiperidin-3-yl)-1-oxo-2,3-dihydro-1H-isoindol-4-yl]piperazine-1-carbonyl}-7-azaspiro [3.5]nonan-7-yl)pyrimidin-4-yl]amino}-2-oxo-1-(propan-2-yl)-1,2-dihydroquinolin-3-yl)oxy]-N-methylacetamide], the DC50 was below 10 nM and the Dmax was 50 to 70%.

In the case of `CNC(=O)COc1cc2cc(Nc3nc(N4CCC(OC5CCN(c6ccc7c(c6)CN(C6CCC(=O)NC6=O)C7=O)CC5)CC4)ncc3Cl)ccc2n(C(C)C)c1=O` (centres unmarked) [Compound 28, 2-{[6-({5-chloro-2-[4-({1-[2-(2,6-dioxopiperidin-3-yl)-1-oxo-2,3-dihydro-1H-isoindol-5-yl]piperidin-4-yl}oxy)piperidin-1-yl]pyrimidin-4-yl}amino)-2-oxo-1-(propan-2-yl)-1,2-dihydroquinolin-3-yl]oxy}-N-methylacetamide], the 50% degradation concentration (DC50) was below 10 nM and the greatest degradation seen (Dmax) lay in the range of 50 to 70%.

On to `CNC(=O)COc1cc2cc(Nc3nc(N4CCCCC4)ncc3Cl)ccc2n(CCOc2ccc3c(c2)C(=O)N(C2CCC(=O)NC2=O)C3=O)c1=O` (centres unmarked) [Compound 29, 2-[(6-{[5-chloro-2-(piperidin-1-yl)pyrimidin-4-yl]amino}-1-(2-{[2-(2,6-dioxopiperidin-3-yl)-1,3-dioxo-2,3-dihydro-1H-isoindol-5-yl]oxy}ethyl)-2-oxo-1,2-dihydroquinolin-3-yl)oxy]-N-methylacetamide], for which the DC50 lay in the range of 10 to 50 nM and the Dmax was in the range of 50 to 70%.

As for `CNC(=O)COc1cc2cc(Nc3nc(N4CCC(O[C@H]5CC[C@H](Oc6ccc7c(c6)C(=O)N(C6CCC(=O)NC6=O)C7=O)CC5)CC4)ncc3Cl)ccc2n(C(C)C)c1=O` (some centres unmarked) [Compound 30, 2-[(6-{[5-chloro-2-(4-{[(1r,4r)-4-{[2-(2,6-dioxopiperidin-3-yl)-1,3-dioxo-2,3-dihydro-1H-isoindol-5-yl]oxy}cyclohexyl]oxy}piperidin-1-yl)pyrimidin-4-yl]amino}-2-oxo-1-(propan-2-yl)-1,2-dihydroquinolin-3-yl)oxy]-N-methylacetamide], the DC50 was in the range of 10 to 50 nM and the greatest degradation seen (Dmax) lay within 50 to 70%.

On to `CNC(=O)COc1cc2cc(Nc3nc(N4CCC(O[C@H]5CC[C@H](Oc6cccc7c6C(=O)N(C6CCC(=O)NC6=O)C7=O)CC5)CC4)ncc3Cl)ccc2n(C(C)C)c1=O` (some centres unmarked) [Compound 31, 2-[(6-{[5-chloro-2-(4-{[(1r,4r)-4-{[2-(2,6-dioxopiperidin-3-yl)-1,3-dioxo-2,3-dihydro-1H-isoindol-4-yl]oxy}cyclohexyl]oxy}piperidin-1-yl)pyrimidin-4-yl]amino}-2-oxo-1-(propan-2-yl)-1,2-dihydroquinolin-3-yl)oxy]-N-methylacetamide], for which the DC50 was below 10 nM and the Dmax lay in the range of 50 to 70%.
